Test [1] deals with Thymidylate synthase (Escherichia coli (strain K12), UniProt P0A884). Briefly: Inhibition Assay. How it is done:
(§1) All compounds were screened for inhibitory activity against Lactobacillus casei thymidylate synthase (LcTS) and Escherichia coli thymidylate synthase (EsTS). The inhibition experiments were conducted by measuring the effects of the inhibitor at different concentrations on the initial velocity of the enzyme in the presence of a limited amount of the folate substrate.

The target of test [2] is T1, Thymidylate synthase (Lacticaseibacillus casei, UniProt P00469).
T1 sequence (P00469 whole entry): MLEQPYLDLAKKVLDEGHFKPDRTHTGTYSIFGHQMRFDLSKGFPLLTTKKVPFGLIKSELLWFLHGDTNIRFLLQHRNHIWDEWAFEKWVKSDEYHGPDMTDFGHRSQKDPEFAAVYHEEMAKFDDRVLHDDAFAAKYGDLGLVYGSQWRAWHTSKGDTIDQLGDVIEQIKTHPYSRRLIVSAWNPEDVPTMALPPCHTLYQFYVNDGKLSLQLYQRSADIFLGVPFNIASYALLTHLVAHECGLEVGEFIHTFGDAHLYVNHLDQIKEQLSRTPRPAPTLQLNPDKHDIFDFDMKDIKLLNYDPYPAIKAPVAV
The test is described as follows: Inhibition Assay. Here is the method:
as §1

Some results are limits rather than exact numbers.

Thymidylate synthase (Escherichia coli (strain K12), UniProt P0A884), sequence (P0A884 whole entry): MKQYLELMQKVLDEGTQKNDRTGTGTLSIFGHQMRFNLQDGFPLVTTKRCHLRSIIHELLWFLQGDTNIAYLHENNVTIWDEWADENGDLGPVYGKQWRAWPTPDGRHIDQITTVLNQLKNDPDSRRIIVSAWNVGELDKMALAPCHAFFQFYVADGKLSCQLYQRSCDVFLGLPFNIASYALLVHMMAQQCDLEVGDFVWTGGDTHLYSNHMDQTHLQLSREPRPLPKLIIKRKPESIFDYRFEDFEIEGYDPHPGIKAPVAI

For `CN(C)c1cccc2c(S(=O)(=O)N[C@@H](Cc3cc(I)c(OS(=O)(=O)c4cccc5c(N(C)C)cccc45)c(I)c3)C(=O)O)cccc12` [Dansyl derivative, 2L], the Ki on Thymidylate synthase [1] is 8.2 µM; on Thymidylate synthase [2], 4.4 µM.

`CN(C)c1cccc2c(S(=O)(=O)Oc3c(I)cc4c(c3I)CN(S(=O)(=O)c3cccc5c(N(C)C)cccc35)[C@H](C(=O)O)C4)cccc12` [Dansyl derivative, 2R]: the figures for the Ki on Thymidylate synthase [1] and on Thymidylate synthase [2] were 7 µM and 3.6 µM, respectively.

`CN(C)c1cccc2c(S(=O)(=O)Oc3ccc(C[C@H](NS(=O)(=O)c4ccc([N+](=O)[O-])cc4)C(=O)O)cc3)cccc12` [Dansyl derivative, 3L]: the Ki was over 1330 µM on Thymidylate synthase [1] and 2.5 µM on Thymidylate synthase [2].

Consider `CN(C)c1cccc2c(S(=O)(=O)Oc3ccc4c(c3)CN(S(=O)(=O)c3ccc([N+](=O)[O-])cc3)[C@H](C(=O)O)C4)cccc12` [Dansyl derivative, 3R], for which the Ki on Thymidylate synthase [1] was found to be 23 µM; at Thymidylate synthase [2] it was 5.9 µM.

Take `CN(C)c1cccc2c(S(=O)(=O)Oc3ccc(C[C@H](NC(=O)c4ccc([N+](=O)[O-])cc4)C(=O)O)cc3)cccc12` [Dansyl derivative, 4L]: the inhibition constant Ki is over 1330 µM on Thymidylate synthase [1] and 15 µM on Thymidylate synthase [2].

As to `CN(C)c1cccc2c(S(=O)(=O)Oc3ccc4c(c3)CN(C(=O)c3ccc([N+](=O)[O-])cc3)[C@H](C(=O)O)C4)cccc12` [Dansyl derivative, 4R], the inhibitory constant (Ki) is 36 µM on Thymidylate synthase [1] and 15 µM on Thymidylate synthase [2].

Consider `CN(C)c1cccc2c(S(=O)(=O)Oc3ccc(C[C@H](NS(=O)(=O)c4ccc(C(F)(F)F)cc4[N+](=O)[O-])C(=O)O)cc3)cccc12` [Dansyl derivative, 5L], for which the Ki on Thymidylate synthase [1] is over 636 µM; on Thymidylate synthase [2], 6.7 µM.

Take `CN(C)c1cccc2c(S(=O)(=O)Oc3ccc4c(c3)CN(S(=O)(=O)c3ccc(C(F)(F)F)cc3[N+](=O)[O-])[C@H](C(=O)O)C4)cccc12` [Dansyl derivative, 5R]: the Ki on Thymidylate synthase [1] is 61 µM; at Thymidylate synthase [2], 5.5 µM.

In the case of `CN(C)c1cccc2c(S(=O)(=O)Oc3ccc(C[C@H](NS(=O)(=O)CC45CCC(C(=O)C4)C5(C)C)C(=O)O)cc3)cccc12` (stereo not given in full) [Dansyl derivative, 6L], the inhibition constant Ki at Thymidylate synthase [1] is over 1340 µM; on Thymidylate synthase [2], 5.8 µM.

In the case of `CN(C)c1cccc2c(S(=O)(=O)Oc3ccc4c(c3)CN(S(=O)(=O)CC35CCC(C(=O)C3)C5(C)C)[C@H](C(=O)O)C4)cccc12` (stereo not given in full) [Dansyl derivative, 6R], the values for the Ki on Thymidylate synthase [1] and at Thymidylate synthase [2] were 131 µM and 23 µM, respectively.

For `CN(C)c1cccc2c(S(=O)(=O)Oc3ccc(C[C@H](NC(=O)c4ccc5ccccc5c4)C(=O)O)cc3)cccc12` [Dansyl derivative, 7L], the Ki at Thymidylate synthase [1] was over 1470 µM; at Thymidylate synthase [2], 17 µM.

On to `CN(C)c1cccc2c(S(=O)(=O)Oc3ccc4c(c3)CN(C(=O)c3ccc5ccccc5c3)[C@H](C(=O)O)C4)cccc12` [Dansyl derivative, 7R], for which the figures for the Ki on Thymidylate synthase [1] and on Thymidylate synthase [2] were 1530 µM and 9.4 µM, respectively.

On to `CN(C)c1cccc2c(S(=O)(=O)Oc3ccc(C[C@H](NS(=O)(=O)Cc4ccccc4)C(=O)O)cc3)cccc12` [Dansyl derivative, 8L], for which the Ki was over 1800 µM at Thymidylate synthase [1] and 4.7 µM at Thymidylate synthase [2].

Take `CN(C)c1cccc2c(S(=O)(=O)Oc3ccc4c(c3)CN(S(=O)(=O)Cc3ccccc3)[C@H](C(=O)O)C4)cccc12` [Dansyl derivative, 8R]: the results for the inhibitory constant (Ki) at Thymidylate synthase [1] and at Thymidylate synthase [2] were 194 µM and 10 µM, respectively.

As for `CN(C)c1cccc2c(S(=O)(=O)Oc3ccc(C[C@H](NS(=O)(=O)c4cc(Br)c(Br)s4)C(=O)O)cc3)cccc12` [Dansyl derivative, 9L], the results for the Ki at Thymidylate synthase [1] and at Thymidylate synthase [2] were over 1330 µM and 27 µM, respectively.

For the compound `CN(C)c1cccc2c(S(=O)(=O)Oc3ccc4c(c3)CN(S(=O)(=O)c3cc(Br)c(Br)s3)[C@H](C(=O)O)C4)cccc12` [Dansyl derivative, 9R], the Ki at Thymidylate synthase [1] came out at 60 µM; at Thymidylate synthase [2], 4 µM.

As to `CN(C)c1cccc2c(S(=O)(=O)N[C@@H](Cc3ccc(OS(=O)(=O)c4cccc5c(N(C)C)cccc45)cc3)C(=O)O)cccc12` [Dansyl derivative, DDT, 1L], on Thymidylate synthase [1], the affinity, expressed as Ki, was 1.8 µM.

On to `CN(C)c1cccc2c(S(=O)(=O)Oc3ccc4c(c3)CN(S(=O)(=O)c3cccc5c(N(C)C)cccc35)[C@H](C(=O)O)C4)cccc12` [Dansyl derivative, rigid DDT, 1R], for which the Ki came out at 13 µM on Thymidylate synthase [1] and 0.8 µM at Thymidylate synthase [2].

One may read the Ki as a measure of affinity in units of concentration, obtained from inhibition or displacement.

Values taken from BindingDB's records for doi:10.1002/cbic.200700524 (Universit&#224, 2008).
